Assay [1] has as its target T1, IDO (Homo sapiens, UniProt P14902). The conditions noted are these: J F Reinhard et al., 1996, read-out: IC50 (affinity to IDO); cited from earlier work.
Target sequence in this assay (P14902 whole entry, species assumed): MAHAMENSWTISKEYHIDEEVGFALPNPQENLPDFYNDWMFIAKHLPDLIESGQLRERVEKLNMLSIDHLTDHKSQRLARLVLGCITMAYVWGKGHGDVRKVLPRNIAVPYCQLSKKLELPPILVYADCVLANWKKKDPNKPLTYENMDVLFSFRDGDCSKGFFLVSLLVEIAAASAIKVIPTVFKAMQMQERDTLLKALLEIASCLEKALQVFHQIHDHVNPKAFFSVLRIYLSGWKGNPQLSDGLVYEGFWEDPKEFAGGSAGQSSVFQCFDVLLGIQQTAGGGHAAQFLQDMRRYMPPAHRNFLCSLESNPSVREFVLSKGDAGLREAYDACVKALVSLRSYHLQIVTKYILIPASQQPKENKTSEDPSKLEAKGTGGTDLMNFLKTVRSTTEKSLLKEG
In assay [2] the target is T2, TDO2 in Head and Neck carcinoma cell line 2720 (SENY) (Homo sapiens, UniProt P48775).
T2 construct: To confirm the expression of enzymatically active TDO2, we used Head and Neck carcinoma cell line 2720 (SENY); endogenous in cells; host or cells: Head and Neck carcinoma cell line 2720 (SENY)
The experiment in a line: Tryptophan consumption and kynurenine production by Head and Neck carcinoma cell line 2720 (SENY), HPLC of supernatant. The assay is classed as cell-based. The note with it: at 20 μM; SENY cells, overnight, HBSS with 50 μM tryptophan. The protocol:
FIG. 5. A bar graph depicting tryptophan consumption and kynurenine production in head and neck carcinoma cell line 2720 (SENY) in the presence or absence of the TDO-specific inhibitor 680C91 or the IDO inhibitor mb.
To confirm the expression of enzymatically active TDO2, we used Head and Neck carcinoma cell line 2720 (SENY), which expresses 12.7 molecules of TDO2 mRNA/cell. We measured tryptophan consumption and kynurenine production in the supernatant of 5×10^5 cells incubated overnight in 2 ml of HBSS containing 50 μM tryptophan. Tryptophan and kynurenine concentrations were measured by HPLC using standard methods.
See FIG. 5 for results of this assay. To confirm that the tryptophan-degrading activity was due to TDO, TDO-specific inhibitor 680C91 was included at 5 μM or 20 μM. As control, an IDO inhibitor (mb) was also used at 5 μM or 20 μM. A tryptophan-degrading activity was detected and was clearly observed by looking at the production of kynurenine: 11 μM as compared to 0 in the control without cells. This activity was mostly attributable to TDO, as it was blocked by the TDO-specific inhibitor 680C91 (50% inhibition at 20 μM).

Assay [3] has as its target T3, human TDO2 (Homo sapiens, UniProt P48775).
T3 construct: expressed in transfected cells; host or cells: human 293-EBNA (293-E) cells
The assay is described as follows: Tryptophan degradation and kynurenin production by 293-E cells transfected with human TDO2, HPLC of supernatant. The format is cell-based. The note with it: 293-E hTDO cells, overnight, HBSS with 25 μM tryptophan, increasing inhibitor concentrations (FIG. 4).

The target of assay [4] is T1, IDO. The assay is described as follows: Tryptophan degradation and kynurenin production by 293-E cells transfected with human IDO, HPLC of supernatant. The assay is classed as cell-based. The arrangement: expressed in transfected cells; host or cells: human 293-EBNA (293-E) cells. The note with it: 293-E hIDO cells, overnight, HBSS with 25 μM tryptophan, increasing inhibitor concentrations (FIG. 4). The protocol:
FIG. 4. Line graphs depicting concentrations of tryptophan and kynurenine in culture supernatants of different transfected cells. Control human 293-EBNA cells (293-E) (FIG. 4A), 293-E cells transfected with human IDO (293-E hIDO) (FIG. 4B) or human 293-E cells transfected with human TDO2 (293-E hTDO) (FIG. 4C) were incubated overnight (4×10^5 cells/2000) in Hank's balanced Salt solution (HBSS) supplemented with 25 μM tryptophan and increasing concentrations of the 680C91 inhibitor compound ([inh]). The concentrations (μM) of tryptophan ([Trp], ⋄) and kynurenin ([Kyn], □) were measured by HPLC in the supernatant.
A TDO inhibitor, 680C91, was described in Salter, M., R. Hazelwood, C. I. Pogson, R. Iyer, and D. J. Madge. 1995. Biochem. Pharmacol. 49:1435-1442. We synthesized this compound and tested its capacity to block tryptophan degradation by human 293 cells transfected with TDO2.
Target sequence in this assay (P14902 whole entry): as the sequence (P14902 whole entry, species assumed) above

T3 sequence (P48775 whole entry): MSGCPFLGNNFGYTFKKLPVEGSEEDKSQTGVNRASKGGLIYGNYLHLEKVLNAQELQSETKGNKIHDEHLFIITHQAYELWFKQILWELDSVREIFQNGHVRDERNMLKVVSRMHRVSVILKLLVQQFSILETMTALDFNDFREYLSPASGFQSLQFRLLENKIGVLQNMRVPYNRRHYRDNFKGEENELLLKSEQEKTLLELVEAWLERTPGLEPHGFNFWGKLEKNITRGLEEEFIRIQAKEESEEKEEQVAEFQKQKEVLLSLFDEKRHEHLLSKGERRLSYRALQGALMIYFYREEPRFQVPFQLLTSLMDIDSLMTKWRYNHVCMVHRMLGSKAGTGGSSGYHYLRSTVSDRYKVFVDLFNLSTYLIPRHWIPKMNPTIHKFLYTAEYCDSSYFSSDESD
T2 sequence (P48775 whole entry): as above

For the molecule `C(=C\c1c[nH]c2ccccc12)/c1ccncc1` [540C91, (E)-3-[2-(4′-pyridyl)-vinyl]-1H-indole], the half-maximal inhibitory concentration (IC50) in assay [1] was 1150 µM.
Regarding `Fc1ccc2c(/C=C/c3cccnc3)c[nH]c2c1` [680C91, (E)-6-fluoro-3-[2-(3-pyridyl)vinyl]-1H-indole], the “inhibition of tryptophan-degrading activity (kynurenine production)” value in assay [2] stood at 50%. Also, the “block of tryptophan degradation and kynurenin production by TDO-expressing cells” value in assay [3] is “efficiently blocked”. Also, the “block of tryptophan degradation and kynurenin production by IDO-expressing cells” value in assay [4] is listed as “failed to block”.

By IC50 is commonly meant the concentration that inhibits the measured activity by half.

These data come from patent publication US20110159017A1, “TRYTOPHAN CATABOLISM IN CANCER TREATMENT AND DIAGNOSIS” (Ludwig Institute for Cancer Research Ltd., priority 2008, published 2011).
